Results on three compounds are retold here after ChEMBL document CHEMBL1255489, “Low prevalence of fks1 hot spot 1 mutations in a worldwide collection of Candida strains” (2010).

In brackets after ≈: the same amount, converted by molar mass. Starred links: 1 amine or outer side, 2 acyl side, 3 side chain; linkers in the order of their positions; H or OH if unused. Positions of bridges follow the written chain, without caps; N, C: chain ends. Non-standard residues stand in square brackets, D forms with d. Residues, ends and D or L forms follow the SMILES beside them. *: point of attachment. hTyr(3S-OH,4S-OH,3'-OSO3H) = N[C@H](C(=O)O)[C@H](O)[C@@H](O)c1ccc(O)c(OS(=O)(=O)O)c1; pTerphenylCO(4''-OnC5H11) = CCCCCOc1ccc(-c2ccc(-c3ccc(C(=O)*)cc3)cc2)cc1; Orn(4R-OH,5R-OH) = O=C([C@H](C[C@@H](O)[C@@H](O)N[*:3])N[*:1])[*:2]; hTyr(3S-OH,4S-OH) = N[C@H](C(=O)O)[C@H](O)[C@@H](O)c1ccc(O)cc1; Pro(3S-OH,4S-Me) = C[C@H]1CN[C@H](C(=O)O)[C@H]1O; X1 = CCCCCOc1ccc(-c2cc(-c3ccc(C(=O)*)cc3)no2)cc1; Gln(3R-OH) = NC(=O)C[C@@H](O)[C@H](N)C(=O)O; Hyp = O=C(O)[C@@H]1C[C@@H](O)CN1

Common to all, as to format: functional
One assay has as its system Candida. As to the kind of experiment: Antifungal activity against Candida species after 24 to 48 hrs by broth microdilution method. On the technique in general: In broth dilution the organism is exposed to a series of concentrations in liquid medium.
The subject of assay [1] is Nakaseomyces glabratus. As to the kind of experiment: Antifungal activity against Candida glabrata isolate 4707 expressing fks2 S645P mutant after 24 to 48 hrs by broth microdilution method.
Assay [2] relates to Pichia kudriavzevii. As to the kind of experiment: Antifungal activity against Candida krusei ATCC 6258 expressing fks1 L644W mutant by EUCAST method.
Assay [3] concerns Candida tropicalis. Put plainly: Antifungal activity against Candida tropicalis expressing fks1 L644W mutant by EUCAST method.
The subject of assay [4] is Pichia kudriavzevii. Put plainly: Antifungal activity against Candida krusei after 24 to 48 hrs by broth microdilution method.
Assay [5] relates to Nakaseomyces glabratus. Put plainly: Antifungal activity against Candida glabrata isolate 4708 expressing fks1 S645P mutant after 24 to 48 hrs by broth microdilution method.
The subject of assay [6] is Nakaseomyces glabratus. As to the kind of experiment: Antifungal activity against Candida glabrata isolate 4720 expressing fks2 S645P mutant after 24 to 48 hrs by broth microdilution method.
Assay [7] relates to Candida albicans. As to the kind of experiment: Antifungal activity against Candida albicans after 24 to 48 hrs by broth microdilution method.
Assay [8] concerns Nakaseomyces glabratus. Put plainly: Antifungal activity against Candida glabrata after 24 to 48 hrs by broth microdilution method.
The test system of assay [9] is Nakaseomyces glabratus. As to the kind of experiment: Antifungal activity against Candida glabrata isolate 4690 expressing fks2 L644W mutant after 24 to 48 hrs by broth microdilution method.
In assay [10] the test system is Candida tropicalis. Put plainly: Antifungal activity against Candida tropicalis isolate 4748 expressing fks1 F641S mutant after 24 to 48 hrs by broth microdilution method.
Assay [11] has as its system Candida tropicalis. As to the kind of experiment: Antifungal activity against Candida tropicalis isolate 4780 expressing fks1 F641S mutant after 24 to 48 hrs by broth microdilution method.
For assay [12], the system named is Candida albicans. Put plainly: Antifungal activity against Candida albicans expressing fks1 F641S mutant after 24 to 48 hrs by broth microdilution method.
The test system of assay [13] is Candida albicans. Put plainly: Antifungal activity against Candida albicans isolate 4700 expressing fks1 F641Y mutant after 24 to 48 hrs by broth microdilution method.

For the compound `CC[C@H](C)C[C@H](C)CCCCCCCCC(=O)N[C@H]1C[C@@H](O)[C@@H](NCCN)NC(=O)[C@@H]2[C@@H](O)CCN2C(=O)[C@H]([C@H](O)CCN)NC(=O)[C@H]([C@H](O)[C@@H](O)c2ccc(O)cc2)NC(=O)[C@@H]2C[C@@H](O)CN2C(=O)[C@H]([C@@H](C)O)NC1=O` [CASPOFUNGIN], the MIC – broadly, the smallest concentration in the dilution series that meets the test's criterion for growth inhibition – is not above 8 ng/mL against Candida; 8 µg/mL (≈ 7.32 µM) with Nakaseomyces glabratus [1]; 8 µg/mL (≈ 7.32 µM) in the assay with Pichia kudriavzevii [2]; 1 µg/mL (≈ 0.915 µM) with Candida tropicalis [3]; 1 µg/mL (≈ 0.915 µM) in the assay with Pichia kudriavzevii [4]; not below 8 µg/mL with Nakaseomyces glabratus [5]. In addition, the MIC is not below 8 µg/mL in the assay on Nakaseomyces glabratus [6]; not above 0.06 µg/mL in the assay on Candida albicans [7]; not above 0.06 µg/mL in the assay with Nakaseomyces glabratus [8]; 0.25 µg/mL (≈ 0.229 µM) against Nakaseomyces glabratus [9]; 4 µg/mL (≈ 3.66 µM) against Candida tropicalis [10]; 4 µg/mL (≈ 3.66 µM) with Candida tropicalis [11]. Also, the MIC in the assay with Candida albicans [12] was found to be 2 µg/mL (≈ 1.83 µM); against Candida albicans [13], 1 µg/mL (≈ 0.915 µM).

For `CCCCCOc1ccc(-c2ccc(-c3ccc(C(=O)N[C@H]4C[C@@H](O)[C@@H](O)NC(=O)[C@@H]5[C@@H](O)[C@@H](C)CN5C(=O)[C@H]([C@@H](C)O)NC(=O)[C@H]([C@H](O)[C@@H](O)c5ccc(O)cc5)NC(=O)[C@@H]5C[C@@H](O)CN5C(=O)[C@H]([C@@H](C)O)NC4=O)cc3)cc2)cc1` [ANIDULAFUNGIN] ({pTerphenylCO(4''-OnC5H11)}-[Orn(4R-OH,5R-OH)]T[Hyp][hTyr(3S-OH,4S-OH)]T[Pro(3S-OH,4S-Me)]; lactam 1-C), the MIC against Nakaseomyces glabratus [1] is 4 µg/mL (≈ 3.51 µM); with Pichia kudriavzevii [4], 0.06 µg/mL (≈ 0.0526 µM); against Nakaseomyces glabratus [5], 4 µg/mL (≈ 3.51 µM); against Nakaseomyces glabratus [6], 4 µg/mL (≈ 3.51 µM); against Candida albicans [7], not above 0.12 µg/mL; with Nakaseomyces glabratus [8], not above 0.12 µg/mL. For the same compound, the MIC against Nakaseomyces glabratus [9] was 0.12 µg/mL (≈ 0.105 µM); in the assay on Candida tropicalis [10], 1 µg/mL (≈ 0.877 µM); with Candida tropicalis [11], 1 µg/mL (≈ 0.877 µM); in the assay on Candida albicans [12], 0.12 µg/mL (≈ 0.105 µM); in the assay on Candida albicans [13], 0.12 µg/mL (≈ 0.105 µM).

As to `CCCCCOc1ccc(-c2cc(-c3ccc(C(=O)N[C@H]4C[C@@H](O)[C@@H](O)NC(=O)[C@@H]5[C@@H](O)[C@@H](C)CN5C(=O)[C@H]([C@H](O)CC(N)=O)NC(=O)[C@H]([C@H](O)[C@@H](O)c5ccc(O)c(OS(=O)(=O)O)c5)NC(=O)[C@@H]5C[C@@H](O)CN5C(=O)[C@H]([C@@H](C)O)NC4=O)cc3)no2)cc1` [MICAFUNGIN] (X1-[Orn(4R-OH,5R-OH)]T[Hyp][hTyr(3S-OH,4S-OH,3'-OSO3H)][Gln(3R-OH)][Pro(3S-OH,4S-Me)]; lactam 1-C), the MIC in the assay on Nakaseomyces glabratus [1] is 2 µg/mL (≈ 1.57 µM); in the assay with Nakaseomyces glabratus [5], 4 µg/mL (≈ 3.15 µM); against Nakaseomyces glabratus [6] it was 4 µg/mL (≈ 3.15 µM); with Candida albicans [7], not above 0.06 µg/mL; in the assay on Nakaseomyces glabratus [8] it was not above 0.06 µg/mL; in the assay with Nakaseomyces glabratus [9], 0.06 µg/mL (≈ 0.0472 µM). Also, the MIC came to 0.5 µg/mL (≈ 0.394 µM) in the assay on Candida tropicalis [10], 0.5 µg/mL (≈ 0.394 µM) in the assay with Candida tropicalis [11], 0.5 µg/mL (≈ 0.394 µM) in the assay with Candida albicans [12] and 0.25 µg/mL (≈ 0.197 µM) against Candida albicans [13].
